# In paper PMC7662321, “Andrographolide and Its 14-Aryloxy Analogues Inhibit Zika and Dengue Virus Infection” (Molecules, 2020):
# Assays:
# [1] = MTT cytotoxicity assay in BHK-21 cells; type: cell-based; settings: hamster, BHK-21 cells (baby hamster kidney), 24 h post-treatment
# Description: (§1) Cytotoxicity of each compound towards cells for four selected cell lines in the range of 1 to 500 µM was evaluated using the MTT (3-(4,5-dimethylthiazol-2-yl)-2,5-diphenyltetrazolium bromide) assay at 24 h post-treatment, in parallel with control and vehicle-treated cells (0.1% dimethyl sulfoxide (DMSO)). The 50% cytotoxic concentration (CC50) values calculated from the dose-response curve (Supplementary Figures S2–S5) are shown in Table 1. Overall, a range of cytotoxicities were seen from the four compounds across the […]. The most cytotoxic combination was ZAD-1 and BHK-21 cells, while the least cytotoxic combination was andrographolide and BHK-21 cells (Table 1).
# (§2) A549 cells were cultured in ninety-six-well tissue culture plates under standard conditions until the cells reached 90% confluence. The cell culture medium was removed and then cells were incubated with various concentrations of andrographolide (1–100 μM) diluted in complete medium with FBS prior to being cultured for 24 h under standard conditions before analysis using either the Vybrant MTT Cell proliferation assay kit (V13154, Invitrogen) or the alamarBlue (Thermo Fischer Scientific, Waltham, MA, USA) assay kit according to the manufacturers recommendations. Values were determined from 8 (MTT assay) or 3 (alamarBlue) independent replicates. Negative controls (only media and media with 0.1% DMSO) and positive controls (5% DMSO) were included. To determine cell number, cell cultures were trypsinized by the addition of 0.25% Trypsin/0.1% ethylelediaminetetraacetic acid (EDTA) for 3 min and then cell suspensions were diluted with 0.4% trypan blue solution. Cells were counted using a hemocytometer. Cell morphology was additionally observed under an inverted microscope after 24 h treatment with various concentrations of each compound.
# (§3) Figu re S2. Cytotoxicity of ZAD -1 (A), ZA D-2 (B), ZA D-3 (C), and andro grapholide (D) to BHK- 21 (baby hamster kidney) cells. BHK- 21 cells were incubated with various concentrations of each compound for 24 hrs followed by MTT cell viability assay. The experiment was undertaken independently in 4 replicates.
# (§4) DMSO at the same concentrations was used as a control. 10% ethanol, PBS, and milli- Q water were used as a positive control of cell death. The bars show mean ± SD. […]
# [2] = MTT cytotoxicity assay in A549 cells; type: cell-based; settings: human, A549 cells (human lung carcinoma), 24 h post-treatment
# Description: as §1, §2
# as §3, with “S4.” for “S2.”, “A549 (human lung carcinoma)” for “BHK- 21 (baby hamster kidney)”, “A549” for “BHK- 21”
# as §4
# [3] = MTT cytotoxicity assay in HEK293T/17 cells; type: cell-based; settings: human, HEK293T/17 cells (human embryonic kidney), 24 h post-treatment
# Description: as §1, §2
# Figu re S5. Cytotoxicity of ZAD -1 (A), ZA D-2 (B), ZA D-3 (C), and andro grapholide (D) to HEK293T/17 (human embryonic kidney) cells.
# HEK293T/17 cells were incubated with various concentrations of each compound for 24 hrs followed by MTT cell viability assay. The experiment was undertaken independently in 4 replicates. DMSO at the same concentrations was used as a control.
# 10% ethanol, PBS, and milli- Q water were used as a positive control of cell death. […]
# HSPA1A = assay: Western blot of HSPA1A expression in treated A549 cells; type: cell-based, human; settings: A549, 25 µM, 24 h, normalized to GAPDH
# Description: (§5) To confirm the 2D-gel analysis results, HSPA1A and PGK1 were selected for the validation by Western blot. The same three experimental conditions were established, namely A549 cells treated with vehicle (0.025% DMSO), 25 μM andrographolide or 25 μM ZAD-1. Glyceraldehyde-3-phosphate dehydrogenase (GAPDH) was used as a loading control and the proteins were normalized to this protein. […] While the difference in HSPA1A expression between andrographolide treatment and ZAD-1 treatment is consistent with the spot intensity data (Table 3), the spot density for the control DMSO treatment is not consistent with the western blot result.
# (§6) A total of 40 µg of proteins were separated by electrophoresis through a 12% sodium dodecyl sulfate (SDS) polyacrylamide gel and transferred to a nitrocellulose membrane by electroblotting. The membranes were blocked with 5% skim milk in TBS-T (20 mM Tris, 140 mM NaCl and 0.1% Tween-20) at room temperature for 1 h with shaking. […] The signal of specific protein bands was detected using the Luminata Forte Western HRP Substrate (Millipore Corp., Burlington, MA, USA) and recorded by film autoradiography. […]
# PGK1 = assay: Western blot of PGK1 expression in treated A549 cells; type: cell-based, human; settings: A549, 25 µM, 24 h, normalized to GAPDH
# Description: as §5, §6
Compound,CC50 at 24 h [1] [µM],CC50 at 24 h [2] [µM],CC50 at 24 h [3] [µM],HSPA1A expression compared with the vehicle control (HSPA1A),PGK1 expression relative to the vehicle (PGK1),PGK1 expression as compared to andrographolide treatment (PGK1)
C=C1CC[C@@H]2[C@](C)(CO)[C@H](O)CC[C@@]2(C)[C@@H]1C/C=C1/C(=O)OC[C@H]1O [Andrographolide],600 ± 75,211 ± 32,294 ± 96,significantly increased,significantly upregulated,–
C=C1CC[C@@H]2[C@]3(C)COC(C)(C)O[C@@H]3CC[C@@]2(C)[C@@H]1C/C=C1/C(=O)OC[C@@H]1Oc1c(Cl)cc(Cl)c2ccc(C)nc12 [ZAD-1],136 ± 6,273 ± 22,149 ± 40,no significant difference from control,–,significantly increased expression
